Reference: article PMC8168342 (Chemical biology & drug design, 2021)

Target: T1, androgen receptor (AR) (Homo sapiens, UniProt P10275)
T1 sequence (P10275 1-920): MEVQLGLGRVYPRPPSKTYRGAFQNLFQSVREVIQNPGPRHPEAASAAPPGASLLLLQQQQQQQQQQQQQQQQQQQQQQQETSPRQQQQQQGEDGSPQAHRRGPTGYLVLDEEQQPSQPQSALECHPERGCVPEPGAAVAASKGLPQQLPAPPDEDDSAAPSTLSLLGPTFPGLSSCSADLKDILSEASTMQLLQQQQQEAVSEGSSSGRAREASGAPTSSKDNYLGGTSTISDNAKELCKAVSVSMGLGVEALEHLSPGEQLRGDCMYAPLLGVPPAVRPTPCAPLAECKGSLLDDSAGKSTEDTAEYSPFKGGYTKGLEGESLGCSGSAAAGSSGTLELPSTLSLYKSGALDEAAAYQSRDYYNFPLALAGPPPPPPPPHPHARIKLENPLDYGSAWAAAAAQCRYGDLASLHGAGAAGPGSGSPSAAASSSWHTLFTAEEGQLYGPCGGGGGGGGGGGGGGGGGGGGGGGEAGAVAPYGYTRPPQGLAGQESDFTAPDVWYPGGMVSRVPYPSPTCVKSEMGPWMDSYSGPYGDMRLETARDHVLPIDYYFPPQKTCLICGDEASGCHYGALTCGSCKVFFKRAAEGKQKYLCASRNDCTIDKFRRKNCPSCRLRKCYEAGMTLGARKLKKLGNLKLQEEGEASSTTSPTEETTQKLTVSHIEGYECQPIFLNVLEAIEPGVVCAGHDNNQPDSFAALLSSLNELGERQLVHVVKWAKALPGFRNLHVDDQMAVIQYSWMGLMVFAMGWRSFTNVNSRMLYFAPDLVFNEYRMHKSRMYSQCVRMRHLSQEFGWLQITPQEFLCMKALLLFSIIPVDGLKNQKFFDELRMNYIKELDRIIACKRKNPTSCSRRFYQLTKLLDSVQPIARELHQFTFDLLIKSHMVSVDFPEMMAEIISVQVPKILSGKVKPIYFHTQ
Assay: ARE luciferase reporter assay in MDA-kb2 cells, antagonism of […] DHT
Assay type: cell-based

| Structure (SMILES) | % inhibition at 1 μM |
| --- | --- |
| CC1(C)C(=O)N(c2ccc(C#N)c(C(F)(F)F)c2)C(=S)N1c1ccc(CCCCCCO)nc1 [10b, 4-(3-(6-(6-Hydroxyhexyl)pyridin-3-yl)-4,4-dimethyl-5-oxo-2-thioxoimidazolidin-1-yl)-2-(trifluoromethyl) benzonitrile] | 60 |
| CC1(C)C(=O)N(c2ccc(C#N)c(C(F)(F)F)c2)C(=S)N1c1ccc(CCCCCCN=[N+]=[N-])nc1 [11b, 4-(3-(6-(6-Azidohexyl)pyridin-3-yl)-4,4-dimethyl-5-oxo-2-thioxoimidazolidin-1-yl)-2-(trifluoromethyl) benzonitrile] | 60 |
